# Reference: paper PMC4796657, “Functional identification of SLC43A3 as an equilibrative nucleobase transporter involved in purine salvage in mammals” (Scientific Reports, 2015)
# Target: T1, SLC43A3 (equilibrative nucleobase transporter 1, ENBT1) (Homo sapiens, UniProt Q8NBI5)
# T1 sequence (Q8NBI5 1-491): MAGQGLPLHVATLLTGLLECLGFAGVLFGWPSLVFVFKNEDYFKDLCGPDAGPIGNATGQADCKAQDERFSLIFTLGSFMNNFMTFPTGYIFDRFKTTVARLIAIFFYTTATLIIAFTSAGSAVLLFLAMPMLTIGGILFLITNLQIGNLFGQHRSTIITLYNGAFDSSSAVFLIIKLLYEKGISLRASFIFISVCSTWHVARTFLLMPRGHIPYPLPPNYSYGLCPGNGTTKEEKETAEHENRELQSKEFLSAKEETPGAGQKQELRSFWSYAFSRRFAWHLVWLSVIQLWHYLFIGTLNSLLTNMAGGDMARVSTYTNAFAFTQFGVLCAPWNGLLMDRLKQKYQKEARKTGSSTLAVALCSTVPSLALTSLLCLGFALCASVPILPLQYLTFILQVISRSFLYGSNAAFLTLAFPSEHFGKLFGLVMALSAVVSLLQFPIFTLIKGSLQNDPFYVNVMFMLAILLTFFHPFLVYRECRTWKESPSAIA
# Experiment: inhibition of ENBT1-mediated [3H]adenine uptake; radiolabeled uptake (apparent Km […])
# Assay type: cell-based
# Design: full length, 491 amino acid residues, stably expressed in MDCKII cells
# Details: not given
row,Compound,IC50 [µM]
1,Nc1nc2nc[nH]c2c(=O)[nH]1 [guanine],70

# Target: T1, SLC43A3 (equilibrative nucleobase transporter 1, ENBT1)
# Experiment: cell-based
# Details: not given
row,IC50 [µM],Compound
1,350,O=c1[nH]cnc2nc[nH]c12 [hypoxanthine]

# Target: T1, SLC43A3 (equilibrative nucleobase transporter 1, ENBT1)
# Experiment: inhibition of ENBT1-mediated [3H]hypoxanthine uptake; radiolabeled uptake (apparent Km […])
# Assay type: cell-based
# Design: full length, 491 amino acid residues, stably expressed in MDCKII cells
# Details: not given
row,Compound,IC50 [µM]
1,Nc1ncnc2nc[nH]c12 [adenine],13

# Target: T1, SLC43A3 (equilibrative nucleobase transporter 1, ENBT1)
# Experiment: inhibition of ENBT1-specific [3H]adenine uptake at […]
# Assay type: cell-based
# Design: full length, 491 amino acid residues, stably expressed in MDCKII cells
# Details: not given
row,Compound,inhibition of ENBT1-specific [3H]adenine uptake at 200 uM
1,Nc1nc2nc[nH]c2c(=S)[nH]1 [6-thioguanine],"purine and its several analogs, such as 6-thioguanine and mercaptopurine, showed inhibitory activities, suggesting that they are also substrates"
2,S=c1[nH]cnc2nc[nH]c12 [mercaptopurine],"purine and its several analogs, such as 6-thioguanine and mercaptopurine, showed inhibitory activities, suggesting that they are also substrates"
3,c1ncc2nc[nH]c2n1 [purine],"purine and its several analogs, such as 6-thioguanine and mercaptopurine, showed inhibitory activities, suggesting that they are also substrates"

# Target: T1, SLC43A3 (equilibrative nucleobase transporter 1, ENBT1)
# Experiment: cell-based
# Design: full length, 491 amino acid residues, stably expressed in MDCKII cells; species or system MDCKII stably expressing ENBT1; inhibition of ENBT1-specific [3H]adenine (5 nM) uptake, 40 s, 22 C, mock-subtracted, scintillation counting
# Details: MDCK-II; [3H]adenine 5 nM, pH 7.4, 22 C, 40 s; read-out: Uptake rate (% of control)
# Experimental: MDCKII cells stably expressing ENBT1 (1.5 × 10^5 cells/well initially) were grown on 24-well plates for 72 h. The cells in each well were preincubated in 0.25 ml of substrate-free uptake buffer (140 mM NaCl, 5 mM KCl, 0.4 mM KH2PO4, 0.8 mM MgSO4, 1.0 mM CaCl2, 25 mM glucose, and 10 mM HEPES, pH 7.4) for 5 min, unless otherwise indicated. Uptake assays were started by replacing the substrate-free uptake buffer for preincubation with one containing the radioisotope-labeled substrate (0.25 ml). All of the procedures were conducted at 22 °C or 37 °C. Assays were stopped by addition of ice-cold substrate-free uptake buffer (2 ml), and the cells were washed two times with 2 ml of the same buffer. The cells were solubilized in 0.5 ml of 0.2 M NaOH solution containing 0.5% SDS at room temperature for 1 h, and the associated radioactivity was measured by [compound left out] scintillation counting. Cellular protein content was determined by the method of Lowry et al.[28] using bovine serum albumin as the standard. Uptake assays were also conducted in mock cells, which were transfected with empty pCI-neo vector, to estimate nonspecific uptake. To further explore the substrate specificity of ENBT1, we examined the effect of various compounds (10 μM for decynium-22 and 200 μM for the others) on the ENBT1-mediated uptake of [^3H]adenine in SLC43A3 cells (Fig. 2D). […] Because these two molecules were transported by SLC43A3 minimally (Fig. 2A), they are likely to be recognized as very poor substrates with affinities extremely low to act as competitive inhibitors. […] We also examined the effect of various amino acids (5 mM), as ENBT1 is a member of the amino acid transporter family; however, none of them affected the adenine uptake activity of SLC43A3 cells (see Supplementary Table S1 online), supporting a previo
row,Compound,remaining activity at 5000 µM [%]
1,C[C@H](N)C(=O)O [Alanine],103 ± 4
2,N[C@@H](Cc1c[nH]cn1)C(=O)O [Histidine],101 ± 1.8
3,CC[C@H](C)[C@H](N)C(=O)O [Isoleucine],100 ± 1.3
4,CC(C)C[C@H](N)C(=O)O [Leucine],94 ± 2.5
5,N[C@@H](Cc1ccccc1)C(=O)O [Phenylalanine],98.7 ± 1.1
6,O=C(O)[C@@H]1CCCN1 [Proline],103.4 ± 1
7,C[C@@H](O)[C@H](N)C(=O)O [Threonine],99.7 ± 0.7
8,N[C@@H](Cc1c[nH]c2ccccc12)C(=O)O [Tryptophan],95.6 ± 1.8
9,N[C@@H](Cc1ccc(O)cc1)C(=O)O [Tyrosine],105.7 ± 1
10,CC(C)[C@H](N)C(=O)O [Valine],101 ± 1.6

# The remaining lines, values ahead:
row,remaining activity at 5000 µM [%],Compound
1,95.8 ± 1.7,N=C(N)NCCC[C@H](N)C(=O)O [Arginine]
2,103 ± 2.7,NC(=O)C[C@H](N)C(=O)O [Asparagine]
3,99.9 ± 1.3,N[C@@H](CC(=O)O)C(=O)O [Aspartate]
4,104 ± 0.8,N[C@@H](CS)C(=O)O [Cysteine]
5,103 ± 1.6,N[C@@H](CCC(=O)O)C(=O)O [Glutamate]
6,105 ± 1.3,NC(=O)CC[C@H](N)C(=O)O [Glutamine]
7,96.6 ± 1.2,NCCCC[C@H](N)C(=O)O [Lysine]
8,95.8 ± 1.4,CSCC[C@H](N)C(=O)O [Methionine]
9,105 ± 2.2,N[C@@H](CO)C(=O)O [Serine]

# Target: T1, SLC43A3 (equilibrative nucleobase transporter 1, ENBT1)
# Experiment: inhibition of ENBT1-specific [3H]adenine uptake, about […] at […]
# Assay type: cell-based
# Design: full length, 491 amino acid residues, stably expressed in MDCKII cells
# Details: read-out: % inhibition at 200 μM
row,inhibition at 200 µM [%],Compound
1,~40,O=[N+]([O-])c1ccc(CSc2ncnc3c2ncn3C2OC(CO)C(O)C2O)cc1 (centres unmarked) [nitrobenzylthioinosine]
